Values after ≈ are worked out from the molar mass of the structure shown. Non-standard residues stand in square brackets, D forms with d. Residues, ends and D or L forms follow the SMILES beside them. Orn(N5-OH,N5-Ac) = CC(=O)N(O)CCC[C@H](N)C(=O)O
Columns and labels:
Assay type in all cases: cell-based, Staphylococcus aureus
[1] = system: S. aureus H803 (Newman sirA::Km); test: Minimum inhibitory concentration (MIC) in TMS; settings: H803, bacteria grown in TMS
Source text: (§1) Streptonigrin is toxic to cells in the presence of intracellular iron and, therefore, cells importing iron are generally more sensitive to the toxic affects of this drug versus mutants debilitated in iron import (Yeowell et al. (1982) Antimicrob. Agents Chemother. 22:961-968). The minimum inhibitory concentration (MIC) of streptonigrin was approximately 4-fold lower for S. aureus Newman grown in TMS than for either S. aureus H803 or H804 grown in the same media (see Table 2).

[2] = system: S. aureus H804 (Newman sirB::Tet); test: Minimum inhibitory concentration (MIC) in TMS; settings: H804, bacteria grown in TMS
Source text: as §1

[3] = system: S. aureus Newman; test: Minimum inhibitory concentration (MIC) in TMS
Source text: as §1

[4] = system: sirA and sirB mutants; test: Siderophore plate bioassay (growth promotion); settings: data not shown
Procedure: Siderophore plate bioassays were performed essentially as previously described (Sebulsky et al. (2000) J. Bacteriol. 182:4394-4400) with the following modifications: TMS-agar was cooled to 45° C. before the addition of 10^5 cfu/ml of each strain to be tested. 2,2′-dipyridyl was added at a concentration of 550 μM for plates containing S. aureus Newman and Newman containing vehicle controls (e.g. pAW8 and pALC2073) or 400 μM 2,2′-dipyridyl for strains H803 (Newman sirA::Km) and H804 (Newman sirB::Tet) (see FIG. 1) with or without plasmids. Staphylobactin siderophore was isolated from RN6390 as previously described (Dale et al. (2004) Infect. Immun. 72:29-37). Briefly, S. aureus strains were vigorously shaken in TMS for 48 hours at 37° C. Culture supernatants were recovered by centrifugation in 100% methanol to 1/10 of the volume of the original culture supernatant and passed through Whatman No. 1 filter paper to remove particulate material. Rotary evaporation was used to reduce the volume before application to an LH-20 column (Amersham Biosciences). Fractions were collected, and those testing positive with chrome azurol S (CAS) shuttle solution and for biological activity in siderophore plate bioassays were dried, resuspended in water, and examined by high-performance liquid chromatography (HPLC). Analytical reversed-phase HPLC was used for final purification of siderophore. The column utilized was a Waters ODS2 SPherisorb column (4.6 by 150 mm). Trifluoroacetic acid (0.1%) in water represented solvent A whereas 0.1% trifluoroacetic acid in acetonitrile was used as solvent B. The chromatographic method used was as follows: at a flow rate of 0.75 ml/min, 6% B for 3.5 min., followed by a gradient of 6 to 60% B over 20 min. […] Staphylobactin was collected, dried, and rechromatographed to check for purity. The purity of Staphylobactin siderophore was confirmed by HPLC analysis. Aerobactin was purchased from EMC microcollections and used at a concentration of 1 μg/ml as a control in all bioassays.

[5] = system: H1071 (RN6390 ΔfhuCBG::ermB); test: Siderophore plate bioassay (iron source utilization); settings: TMS agar, 25 μM EDDHA; compared with wildtype
Procedure: Siderophore plate bioassays were performed essentially as described (Sebulsky et al. (2000) J. Bacteriol. 182:4394-4400). Briefly, 10^4 cells/mL were added to molten TMS agar containing 25 μM EDDHA as an iron chelating agent. Ten microliters of iron sources to be tested (DESFERAL® (50 μM), ferrichrome (50 μM), enterobactin (500 μM), staphylobactin (50 μM DESFERAL® equivalents), hemin (250 μg/mL), hemoglobin (2 mg/mL), FeCl3 (50 mM), or ferric citrate (5 mM)) were added to sterile 6 mm-diameter paper disks and placed on the surface of the plates. Growth promotion, as measured by the diameter of the growth halo around each disk, was determined after 48 h incubation, except for heme and hemoglobin, which were measured after 72 hours.

[6] = Staphylococcus aureus, NEWMAN, read-out: MIC Streptonigrin

| Compound | growth promotion in mutants [4] | utilization as iron source by H1071 [5] | other results |
| --- | --- | --- | --- |
| c1ccc(-c2ccccn2)nc1 [2,2′-dipyridyl] | – | – | MIC 2,2′-dipyridyl [1]: 125 µM (≈ 19.5 µg/mL); MIC 2,2′-dipyridyl [2]: 125 µM (≈ 19.5 µg/mL); MIC higher for Newman than for H803 or H804 [3]: 4 fold; MIC 2,2′-dipyridyl ([3]; Newman, bacteria grown in TMS): 500 µM (≈ 78.1 µg/mL) |
| CC(=O)N(O)CCCCCNC(=O)CCC(=O)N(O)CCCCCNC(=O)CCC(=O)N(O)CCCCCN [DESFERAL®, desferrioxamine B] | unaffected | unable to utilize | – |
| COC1=C(N)C(=O)c2nc(-c3nc(C(=O)O)c(C)c(-c4ccc(OC)c(OC)c4O)c3N)ccc2C1=O [Streptonigrin, streptonigrin] | – | – | MIC [1, 6]: 8 ng/mL (≈ 0.0158 µM); MIC [2, 6]: 8 ng/mL (≈ 0.0158 µM); MIC Streptonigrin ([3]; Newman, bacteria grown in TMS): 2 ng/mL (≈ 0.00395 µM); MIC ([3]; Staphylococcus aureus, Newman + 50 μM DESFERAL, TMS, read-out: MIC Streptonigrin): 2 ng/mL; MIC lower for Newman than for H803 or H804 ([3]; grown in TMS): approximately 4 fold |
| CC(=O)N(O)CCCC[C@H](NC(=O)CC(O)(CC(=O)N[C@@H](CCCCN(O)C(C)=O)C(=O)O)C(=O)O)C(=O)O [aerobactin] | unaffected | unable to utilize | – |
| CC(=O)N[C@@H](CCCN([O-])C(=O)/C=C(\C)CCO)C(=O)OCC/C(C)=C/C(=O)N([O-])CCC[C@@H]1NC(=O)[C@H](CCCN([O-])C(=O)/C=C(\C)CCO)NC1=O.[Fe+3] [coprogen] | – | unable to utilize | – |
| O=C(N[C@H]1COC(=O)[C@@H](NC(=O)c2cccc(O)c2O)COC(=O)[C@@H](NC(=O)c2cccc(O)c2O)COC1=O)c1cccc(O)c1O [enterobactin] | – | not significantly impaired | – |
| CC(=O)N([O-])CCC[C@@H]1NC(=O)CNC(=O)CNC(=O)CNC(=O)[C@H](CCCN([O-])C(C)=O)NC(=O)[C@H](CCCN([O-])C(C)=O)NC1=O.[Fe+3] [ferrichrome] (cyclo(GGG[Orn(N5-OH,N5-Ac)][Orn(N5-OH,N5-Ac)][Orn(N5-OH,N5-Ac)])) | – | unable to utilize | – |
| ferric citrate | unaffected | not significantly impaired | – |
| hemin | – | not significantly impaired | – |
| hemoglobin | – | not significantly impaired | – |

Source: patent publication US8729013B2 (priority 2004, dated 2014)
